From PubChem BioAssay (NCI)
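Method: 48-hour compound exposure of cells in 96-well plates, five concentrations, linear interpolation of endpoints. At the TGI there is no net growth.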

Assays:
Test in all cases: NCI tumour cell line growth inhibition, 48 h
786-0 renal = tested on: 786-0 renal
A498 renal = tested on: A498 renal
A549 NSCLC = tested on: A549 NSCLC
ACHN renal = tested on: ACHN renal
CAKI-1 renal = tested on: CAKI-1 renal
CCRF-CEM leukemia = tested on: CCRF-CEM leukemia
COLO 205 colon = tested on: COLO 205 colon
DLD-1 colon = tested on: DLD-1 colon
DMS 273 small cell lung = tested on: DMS 273 small cell lung
EKVX NSCLC = tested on: EKVX NSCLC
HCC-2998 colon = tested on: HCC-2998 colon
HCT-116 colon = tested on: HCT-116 colon
HL-60(TB) leukemia = tested on: HL-60(TB) leukemia
HOP-62 NSCLC = tested on: HOP-62 NSCLC
HT29 colon = tested on: HT29 colon
IGROV1 ovarian = tested on: IGROV1 ovarian
KM12 colon = tested on: KM12 colon
KM20L2 colon = tested on: KM20L2 colon
LOX IMVI melanoma = tested on: LOX IMVI melanoma
LXFL 529 NSCLC = tested on: LXFL 529 NSCLC
M14 melanoma = tested on: M14 melanoma
M19-MEL melanoma = tested on: M19-MEL melanoma
MALME-3M melanoma = tested on: MALME-3M melanoma
MOLT-4 leukemia = tested on: MOLT-4 leukemia
NCI-H226 lung = tested on: NCI-H226 lung
NCI-H23 lung = tested on: NCI-H23 lung
NCI-H460 lung = tested on: NCI-H460 lung
NCI-H522 lung = tested on: NCI-H522 lung
OVCAR-3 ovarian = tested on: OVCAR-3 ovarian
OVCAR-4 ovarian = tested on: OVCAR-4 ovarian
OVCAR-5 ovarian = tested on: OVCAR-5 ovarian
OVCAR-8 ovarian = tested on: OVCAR-8 ovarian
RXF 393 renal = tested on: RXF 393 renal
RXF-631 renal = tested on: RXF-631 renal
SF-268 CNS = tested on: SF-268 CNS
SF-295 CNS = tested on: SF-295 CNS
SF-539 CNS = tested on: SF-539 CNS
SK-MEL-2 melanoma = tested on: SK-MEL-2 melanoma
SK-MEL-28 melanoma = tested on: SK-MEL-28 melanoma
SK-MEL-5 melanoma = tested on: SK-MEL-5 melanoma
SK-OV-3 ovarian = tested on: SK-OV-3 ovarian
SN12C renal = tested on: SN12C renal
SNB-19 CNS = tested on: SNB-19 CNS
SNB-75 CNS = tested on: SNB-75 CNS
SNB-78 CNS = tested on: SNB-78 CNS
SR leukemia = tested on: SR leukemia
SW-620 colon = tested on: SW-620 colon
TK-10 renal = tested on: TK-10 renal
U251 CNS = tested on: U251 CNS
UACC-257 melanoma = tested on: UACC-257 melanoma
UACC-62 melanoma = tested on: UACC-62 melanoma
UO-31 renal = tested on: UO-31 renal
XF 498 CNS = tested on: XF 498 CNS
DMS 114 small cell lung = tested on: DMS 114 small cell lung
HCT-15 colon = tested on: HCT-15 colon
HOP-18 NSCLC = tested on: HOP-18 NSCLC
HOP-92 NSCLC = tested on: HOP-92 NSCLC
K-562 leukemia = tested on: K-562 leukemia
RPMI-8226 leukemia = tested on: RPMI-8226 leukemia

CCOC(=N)CC(=O)Nc1cccc(C)c1C
TGI (786-0 renal): > 100 µM | TGI (A498 renal): > 100 µM | TGI (A549 NSCLC): > 100 µM | TGI (ACHN renal): > 100 µM | TGI (CAKI-1 renal): > 100 µM | TGI (CCRF-CEM leukemia): > 100 µM | TGI (COLO 205 colon): > 100 µM | TGI (DLD-1 colon): > 100 µM | TGI (DMS 273 small cell lung): > 100 µM | TGI (EKVX NSCLC): > 100 µM | TGI (HCC-2998 colon): > 100 µM | TGI (HCT-116 colon): > 100 µM | TGI (HL-60(TB) leukemia): > 100 µM | TGI (HOP-62 NSCLC): > 100 µM | TGI (HT29 colon): > 100 µM | TGI (IGROV1 ovarian): > 100 µM | TGI (KM12 colon): > 100 µM | TGI (KM20L2 colon): > 100 µM | TGI (LOX IMVI melanoma): > 100 µM | TGI (LXFL 529 NSCLC): > 100 µM | TGI (M14 melanoma): > 100 µM | TGI (M19-MEL melanoma): > 100 µM | TGI (MALME-3M melanoma): > 100 µM | TGI (MOLT-4 leukemia): 7.46 µM | TGI (NCI-H226 lung): > 100 µM | TGI (NCI-H23 lung): > 100 µM | TGI (NCI-H460 lung): > 100 µM | TGI (NCI-H522 lung): > 100 µM | TGI (OVCAR-3 ovarian): > 100 µM | TGI (OVCAR-4 ovarian): > 100 µM | TGI (OVCAR-5 ovarian): > 100 µM | TGI (OVCAR-8 ovarian): > 100 µM | TGI (RXF 393 renal): > 100 µM | TGI (RXF-631 renal): > 100 µM | TGI (SF-268 CNS): > 100 µM | TGI (SF-295 CNS): > 100 µM | TGI (SF-539 CNS): > 100 µM | TGI (SK-MEL-2 melanoma): > 100 µM | TGI (SK-MEL-28 melanoma): > 100 µM | TGI (SK-MEL-5 melanoma): > 100 µM | TGI (SK-OV-3 ovarian): > 100 µM | TGI (SN12C renal): > 100 µM | TGI (SNB-19 CNS): > 100 µM | TGI (SNB-75 CNS): > 100 µM | TGI (SNB-78 CNS): > 100 µM | TGI (SR leukemia): > 100 µM | TGI (SW-620 colon): > 100 µM | TGI (TK-10 renal): > 100 µM | TGI (U251 CNS): > 100 µM | TGI (UACC-257 melanoma): > 100 µM | TGI (UACC-62 melanoma): > 100 µM | TGI (UO-31 renal): > 100 µM | TGI (XF 498 CNS): > 100 µM

Cc1ccc(C2(O)CC(c3ccc([N+](=O)[O-])o3)=NN2C(=O)COc2ccc(Cl)cc2)cc1 (stereo not drawn)
TGI (786-0 renal): 18 µM | TGI (A498 renal): 22.2 µM | TGI (A549 NSCLC): 56.4 µM | TGI (ACHN renal): 43.1 µM | TGI (CAKI-1 renal): 67.5 µM | TGI (COLO 205 colon): 15.3 µM | TGI (DLD-1 colon): > 100 µM | TGI (DMS 114 small cell lung): 83.8 µM | TGI (DMS 273 small cell lung): > 62.1 µM | TGI (EKVX NSCLC): 18.8 µM | TGI (HCC-2998 colon): 16.8 µM | TGI (HCT-116 colon): 22.2 µM | TGI (HCT-15 colon): 17.7 µM | TGI (HOP-18 NSCLC): > 100 µM | TGI (HOP-62 NSCLC): 18.2 µM | TGI (HOP-92 NSCLC): 24.3 µM | TGI (HT29 colon): > 38.8 µM | TGI (IGROV1 ovarian): > 76.4 µM | TGI (K-562 leukemia): > 100 µM | TGI (KM12 colon): 31.4 µM | TGI (KM20L2 colon): 44.1 µM | TGI (LOX IMVI melanoma): 19 µM | TGI (LXFL 529 NSCLC): 10.9 µM | TGI (M14 melanoma): 17.1 µM | TGI (M19-MEL melanoma): 19.7 µM | TGI (MALME-3M melanoma): 27.1 µM | TGI (MOLT-4 leukemia): > 100 µM | TGI (NCI-H226 lung): 39.7 µM | TGI (NCI-H23 lung): 11.9 µM | TGI (NCI-H460 lung): 20.7 µM | TGI (NCI-H522 lung): 34.2 µM | TGI (OVCAR-3 ovarian): 51.7 µM | TGI (OVCAR-4 ovarian): 77.9 µM | TGI (OVCAR-5 ovarian): > 94.9 µM | TGI (OVCAR-8 ovarian): 20.3 µM | TGI (RPMI-8226 leukemia): > 21.2 µM | TGI (SF-268 CNS): 28.1 µM | TGI (SF-295 CNS): 27.6 µM | TGI (SF-539 CNS): 15.4 µM | TGI (SK-MEL-2 melanoma): 16.1 µM | TGI (SK-MEL-28 melanoma): 22.4 µM | TGI (SK-MEL-5 melanoma): 6.6 µM | TGI (SK-OV-3 ovarian): > 100 µM | TGI (SN12C renal): 17.9 µM | TGI (SNB-19 CNS): 67.3 µM | TGI (SNB-75 CNS): > 48.3 µM | TGI (SNB-78 CNS): 58.9 µM | TGI (SR leukemia): 6.52 µM | TGI (SW-620 colon): 10.6 µM | TGI (TK-10 renal): 38.4 µM | TGI (U251 CNS): 9.09 µM | TGI (UACC-257 melanoma): 17 µM | TGI (UACC-62 melanoma): 15.1 µM | TGI (UO-31 renal): 16.2 µM | TGI (XF 498 CNS): 26.9 µM
